Test results reported in article PMC12662929, “MR2938 relieves DSS-induced colitis in mice through inhibiting NF-κB signaling and improving epithelial barrier” (Marine Life Science & Technology, 2025).

Tests used:
[1] = system: NF-κB signaling in Raw264.7 cells; test: LPS-induced inflammation / NF-κB signaling in Raw264.7 macrophages; type: cell-based
Protocol: Raw264.7 cells and Caco-2 cells were obtained from the Cell Bank of the Chinese Academy of Sciences (Shanghai, China) and cultured in high-glucose DMEM medium supplemented with 10% fetal bovine serum (FBS) at 37 ℃ in a 5% CO2 atmosphere. Raw264.7 cells were seeded and incubated in six-well plates (8 × 10^5 cells/well) overnight, and then treated with different concentrations of MR2938 for 2 h. Then Raw264.7 cells were activated by lipopolysaccharide (LPS, 100 ng/mL, Sigma-Aldrich Co., Shanghai, CN) for 2 h or 6 h for transcription or protein level analysis.
(§1) Total RNAs of colon tissues were extracted using tissue RNA kit (Omega Biotek, China) following the manufacturer’s protocol. cDNA was obtained from RNA samples using ReverTra Ace qPCR RT Master Mix with gDNA Remover (TOYOBO, Japan). Quantitative real-time PCR was performed by Applied Biosystems® QuantStudio Q5 instrument (Thermo, USA) with SYBR qPCR Master Mix (Vazyme, China). The relative gene expression was measured and normalized to β-actin expression using 2^−ΔΔCt method.
(§2) For immunofluorescence staining, the frozen colon slides or cells were fixed in 4% paraformaldehyde, permeabilized with 0.1% Triton X-100, blocked non-specific proteins in 5% BSA/PBS for 1 h, and incubated overnight at 4 °C with Occludin, ZO-1 or p65 primary antibodies. The slides were then washed with phosphate buffer (PBS) and incubated with Dylight 488 labeling secondary antibody for 1 h at room temperature. Finally, the colon slides were stained with DAPI for 10 min, and then imaged and captured using ECHO microscope.
Total proteins were extracted with RIPA lysis buffer. After determining the protein concentration by the BCA assay kit, an equal amount of protein was subjected to SDS-PAGE and electro-transferred to a PVDF membrane. The membrane was immune detected with specific antibodies overnight at 4 °C. Proteins were quantified by Image J software. The target antibodies against p65, phosphorylated p65, IκBα, p-IκBα, TLR4, NLRP3, caspase-1, IL-1β, and β-actin were purchased from Proteintech or Cell Signaling Technology.

[2] = system: DSS-induced colitis C57BL/6 mice; test: Acute DSS-induced murine colitis model; type: in vivo, mouse; details: for body weight: MR2938 50 or 100 mg/kg or 5-ASA 100 mg/kg, oral
Protocol: After 1 week of acclimation, the C57BL/6 mice were randomly divided into the following groups (n = 6/group): control group, model group (DSS), DSS + 5-aminosalicylic acid (5-ASA, positive group, 100 mg/kg), DSS + MR2938 (100 mg/kg) and DSS + MR2938 (50 mg/kg). Colitis was induced by administration of 3% DSS drinking water for 5 consecutive days. Water consumption was monitored daily. At the same time, the mice in each group were given the corresponding agents: 5-ASA (100 mg/kg) and MR2938 (50 mg/kg or 100 mg/kg). The dosages of 5-ASA and MR2938 were adopted based on previous reports and our pilot trial. MR2938 or 5-ASA was dissolved in a mixture of saline and DMSO (95:5) to provide the desired concentrations.
Changes in bodyweight were assessed daily over the 9-day experimental period. On the last day of the experiment, mice were sacrificed, and the entire colon was excised. Colon length was measured and gently washed with physiological saline. Then two pieces with 0.5 cm in length of the distal section were used for histological assessment and immunofluorescence staining. The remaining colon tissue samples were used to determine MPO activity and the concentrations of cytokines.
Distal colons were harvested, fixed in 4% paraformaldehyde, and embedded in paraffin. Five-μm-thick tissue sections were stained with hematoxylin and eosin (HE) for light microscopic examination using a DP73 light microscope (Olympus, Tokyo, Japan). Colonic mucosa damage score was assessed as previously described. To count colonic goblet cells, fixed colonic tissues were also stained in Alcian blue for 10–15 min and dehydrated with 100% alcohol and xylene, followed by image acquisition on a microscope.
The serum was obtained from the collected blood samples through centrifugation at 3500 g for 15 min at 4 °C. A portion of frozen colon samples was homogenized with RIPA lysis buffer (Solarbio, Beijing, China) to extract total proteins. The homogenate was centrifuged at 12,000 × g at 4 °C for 15 min. The protein contents were quantified using a bicinchoninic acid (BCA) protein assay kit (Solarbio, Beijing, China) according to the manufacturer’s instructions. The concentrations of proinflammatory cytokines IL-1β, IL-6, and TNF-α in the serum and colon tissue were measured by ELISA (Jingmei Biotech, China) according to the manufacturers’ recommendations. MPO activity was measured using a myeloperoxidase assay kit (Jingmei Biotech, China).
as §1, §2

[3] = In vivo PK study in SD rats; details: plasma, rat
Protocol: MR2938 was synthesized in-house following previously reported procedure (Lv et al. [2023]), and confirmed by NMR and HPLC chromatography (purity > 95%). To detect the pharmacokinetic characters of MR2938 in the plasma, the SD rats were orally and intravenous (i.v.) administered with MR2938 at a dose of 10 mg/kg and 3 mg/kg, respectively. The vehicle consisted of 10% DMSO, 30% saline, and 60% PEG400. Plasma samples were collected at 5 min, 15 min, 30 min and 1 h, 2 h, 4 h, 6 h, 8 h, 12 h, and 24 h after administration. After analyzing the concentration of MR2938 via LC–MS, the values of Cmax, Tmax, T1/2, Cl, AUClast, and AUCInf were calculated (Hu et al. [2018]). The bioavailability of MR2938 from the p.o. was calculated by comparing the area under the concentration–time curve (AUCInf) for the […] dose and that for the i.v. dose.

[4] = Brain permeability in mice after i.p. administration; type: in vivo, mouse; details: n=3
Protocol: Table S2. Concentration of MR2938 in brain after its i.p. administration (6.5 mg/kg)

[5] = system: Caco-2 cells; test: LPS-induced tight junction disruption in Caco-2 cells (immunofluorescence); type: cell-based
Protocol: Caco-2 cells were seeded and incubated in 24-well plates (1 × 10^5 cells/well) for 48 h and treated with 10 μmol/L of MR2938 for 2 h. Then 100 ng/mL of LPS was added for 24 h to induce tight function disruption.
as §2

[6] = system: AChE; design: method as in Lv et al. 2023; details: ref Lv et al. 2023; cited from earlier work
[7] = system: NO production; design: method as in Lv et al. 2023; details: ref Lv et al. 2023; cited from earlier work
[8] = system: proinflammatory cytokines mRNA; design: method as in Lv et al. 2023; details: 2.5 μmol/L; ref Lv et al. 2023; cited from earlier work

O=C(c1ccc(Nc2nccc(-c3cc4ccccc4s3)n2)cc1)N1CCC(N2CCCC2)CC1 [IKK16, reference compound]
LPS-elevated expression level of NLRP3 ([1]; western blot, NF-κB pathway blocked): obviously decreased

Nc1ccc(O)c(C(=O)O)c1 [5-ASA, 5-aminosalicylic acid, reference compound]
body weight ([2]; 3% DSS): marked improvement

COc1cc(OC)c2c(=O)[nH]c(-c3ccc(N4CCN(C)CC4)cc3)nc2c1 [MR2938]
AUC(0-inf) ([3]; iv, 3 mg/kg i.v., mean n = 3): 1070 ng·h/mL
AUC(0-t) ([3]; iv, 3 mg/kg i.v., mean n = 3): 1060 ng·h/mL
Cmax ([3]; iv, 3 mg/kg i.v., mean n = 3): 1030 ng/mL
half-life ([3]; iv, 3 mg/kg i.v., mean n = 3): 2.25 h
clearance ([3]; iv, 3 mg/kg i.v., mean n = 3, read-out: Cl (plasma clearance)): 47.2 mL/min/kg
bioavailability ([3]; oral, 10 mg/kg p.o. vs 3 mg/kg i.v., from AUCInf, read-out: F (oral bioavailability)): 59%
AUC(0-inf) ([3]; po, 10 mg/kg p.o., mean n = 3): 2110 ng·h/mL
AUC(0-t) ([3]; po, 10 mg/kg p.o., mean n = 3): 2080 ng·h/mL
Cmax ([3]; po, 10 mg/kg p.o., mean n = 3): 592 ng/mL
Tmax ([3]; po, 10 mg/kg p.o., mean n = 3): 0.667 h
half-life ([3]; po, 10 mg/kg p.o., mean n = 3): 2.87 h
Amount in brain ([4]; i.p. 6.5 mg/kg (145 μg)): 236.7 ng
Concentration in brain ([4]; i.p. 6.5 mg/kg): 222.07 ng/g
Occludin and ZO-1 proteins in colon (immunofluorescence), comparison with 5-ASA ([2]; 100 mg/kg): as effective as 5-ASA
mRNA levels of Occludin, ZO-1 and claudin-1 in colon ([2]; 100 mg/kg vs colitis group, no statistical difference): upregulated
colon length (shortening) ([2]; 3% DSS, 100 mg/kg oral, similar to control group, significantly longer than 5-ASA group): greatly relieved
body weight ([2]; 3% DSS): marked improvement
inflammatory cell infiltration, mucosal damage and overall colonic damage score (HE histology) ([2]; 3% DSS, oral administration): obvious attenuation
concentration of MPO in colon ([2]; DSS-induced): slight decrease
concentration of MPO in serum ([2]; DSS-induced): slight decrease
colonic level of IL-1β ([2]; ELISA, colon tissue): decreased
colonic level of TNF-α ([2]; ELISA, colon tissue): decreased
IL-1β in mouse serum ([2]; ELISA, 50 mg/kg and 100 mg/kg): significant decrease
TNF-α in mouse serum ([2]; ELISA, 50 mg/kg and 100 mg/kg): significant decrease
serum IL-6 level ([2]; ELISA, 50 mg/kg group compared with 100 mg/kg group): no statistical difference between the two groups
gene transcription of IL-1β in colon ([2]; RT-qPCR): noticeably inhibited
gene transcription of TNF-α in colon ([2]; RT-qPCR): noticeably inhibited
transcription of IL-6 in colon ([2]; RT-qPCR, 100 mg/kg, compared with 5-ASA): more favorable effects on the transcription of IL-6 than 5-ASA
GPx in colon ([2]; colitis group vs treatment group): no significant difference
Occludin and ZO-1 proteins in colon (immunofluorescence) ([2]; dose-dependent, 50 and 100 mg/kg): partially alleviate the depletion
mucin-secreting goblet cells in colonic epithelia (Alcian blue staining) ([2]; similar to control group): rescued the differentiation of mucin-producing goblet cells
organ indexes of mice ([2]; treatment group vs control groups): no obvious differences
production of MDA in colon ([2]; vs DSS group): significantly suppressed
expression of Occludin and ZO-1 ([5]; 10 μmol/L, LPS 100 ng/mL stimulated): able to rescue expression levels
Occludin and ZO-1 protein levels ([5]; MR2938 alone, without LPS): little changes
NF-κB fluorescence intensity / subcellular location ([1]; 10 μM pre-treatment, LPS activation, immunofluorescence): dropped and was mostly accumulated in the cytoplasm
total p65 ([1]; LPS stimulated, western blot): slightly downregulated
phosphorylation of IκBα and p65 ([1]; LPS stimulated, western blot, dose-dependent): effectively inhibited
expression of TLR4 ([1]; LPS stimulated, decrease did not correlate to concentration): reduced
expressions of IL-1β, NLRP3 and caspase-1 (mRNA and protein) ([1]; qPCR and western blot, vs LPS stimulated): significantly reduced
IC50 [6]: 5.04 µM
IC50 [7]: 3.29 µM
mRNA level of proinflammatory cytokines [8]: significantly decreased
